Measured values from patent publication US4396623A, “Carbocyclic analogs of uracil nucleosides as antiviral agents” (priority 1981, dated 1983).
Converted amounts (≈) assume the structure as drawn. “Also recorded” adds a separate entry of the source. Read-outs that look alike come from different tables or passages of the source. Each block holds one compound with its values, some of them ahead of it.

What was measured:
[1] = system: Type 2 herpes simplex virus; assay: Antiviral test against Type 2 herpes simplex virus (Virus Rating); format: cell-based; conditions: for VR: Type 2 herpes simplex virus
Description: (§1) Carbocyclic analogs of 5-substituted-2'-deoxyuridines were tested for antiviral activity against viruses that replicate in mammalian cells growing in cell culture. The Virus Rating (VR) is a weighted measurement of antiviral activity determined by the method of Ehrlich et al, Annals of the New York Academy of Science, volume 130, pages 5-16, 1965. In tests carried out by this method, a VR of 0.5-0.9 indicates marginal to moderate antiviral activity and a VR equal to or greater than 1 indicates definite antiviral activity. The higher the value of VR, the greater is the antiviral activity. The MIC50 (minimum inhibitory concentration, 50%) is the concentration of a test compound required for 50% inhibition of virus-induced cytopathogenic effect.

[2] = system: herpes simplex virus, Type 1; assay: Antiviral test against herpes simplex virus, Type 1, growing in rabbit kidney cells (Virus Rating, MIC50); format: cell-based; set-up: key to Virus Rating (VR) / VR: Ehrlich weighted score; 0.5-0.9 marginal-moderate, ≥1 definite activity; conditions: for Antiviral activity against herpes simplex virus, in words: same type of test as Table 1; for VR: same type of test against herpes simplex virus (Table 1)
Description: as §1
The results of antiviral tests, performed as described in Example 7, of 5-iodo-2'-deoxyuridine (IdUrd), the carbocyclic analog (Example 3) of 5-iodo-2'-deoxyuridine, 9-β-D-arabinofuranosyladenine (Ara-A), the carbocyclic analog (Example 2) of 5-bromo-2'-deoxyuridine, the carbocyclic analog (Example 5) of 5-(methylamino)-2'-deoxyuridine and the carbocyclic analog of thymidine are summarized in Table 3.

herpes simplex virus [3] = assay: Activity against intracerebral herpes simplex virus in mice (herpes encephalitis); format: in vivo; conditions: for % of Infected Mice that lived 10 days or longer / % of Infected Mice that lived less than six days / Median Survival Time: treated seven days, 10x LD50 intracerebral; for Activity against herpes encephalitis in mice, in words: intracerebral herpes simplex virus
Description: Mice were inoculated intracerebrally with ten times the LD50 of herpes simplex virus. (The LD50 is the amount of virus that would be lethal to 50% of the inoculated animals.) Some of these virus-infected mice were treated for seven days with the carbocyclic analog (Example 3) of IdUrd, and some of these virus-infected mice were not treated and served as a control group.

murine leukemia virus = assay: Inhibition of murine leukemia virus replication in mouse embryo cells; format: cell-based
Excerpt: (§2) Carbocyclic analogs of 5-substituted-2'-deoxyuridines may inhibit the replication of other DNA viruses. Thus, the carbocyclic analog (Example 3) of 5-iodo-2'-deoxyuridine is active against varicella-zoster virus replicating in human foreskin fibroblasts (Table 2). […] The IdUrd analog (Example 3) was also active against murine leukemia virus, an RNA tumor virus.

varicella-zoster virus = assay: Inhibition of varicella-zoster virus replication in human foreskin fibroblasts (virus yield-reduction); format: cell-based
Excerpt: as §2
Virus titers are expressed in terms of log10 CCID50 (cell
culture infectious dose, 50%) units per ml., and the reduction in virus
yield after drug treatment is expressed as a logarithm.

herpes simplex virus [4] = conditions: F. M. Schabel, Jr., Chemotherapy 13, 321-328, 1968; listed as IdUrd; cited from earlier work
[5] = Human alphaherpesvirus 1, Table 3 comparison, read-out: MIC50
[6] = Table 1, rabbit kidney cells, VR 0.5-0.9 marginal to moderate, >=1 definite antiviral activity
[7] = Human alphaherpesvirus 1, Table 1, 50% inhibition of virus-induced cytopathogenic effect, rabbit kidney cells, read-out: MIC50 (minimum inhibitory concentration, 50%)

Structure (SMILES): O=c1[nH]c(=O)n([C@@H]2C[C@H](CO)[C@@H](O)C2)cc1Br (relative stereo) [Example 2, (±)-5-Bromo-1-[(1α,3β,4α)-3-hydroxy-4-(hydroxymethyl)cyclopentyl]-2,4(1H,3H)-pyrimidinedione]
Activity against Type 2 herpes simplex virus, in words [1]: high activity
VR [1]: 1.5
EC50 [2, 5]: 0.3 µg/mL (≈ 0.983 µM)
Virus Rating (VR) [2, 6]: 6.2
Virus Rating (VR) ([2]; Table 3 comparison): 6.2
Antiviral activity against herpes simplex virus, in words [2]: very high activity; also recorded: high activity

Structure (SMILES): CC(=O)OC[C@H]1C[C@@H](n2cc(Br)c(=O)[nH]c2=O)C[C@@H]1OC(C)=O (relative stereo) [Example 1, (±)-5-Bromo-1-[(1α,3β,4α)-3-hydroxy-4-(hydroxymethyl)cyclopentyl]-2,4(1H,3H)-pyrimidinedione Diacetate]
EC50 [2, 7]: 92 µg/mL
Virus Rating (VR) [2, 6]: 1.3

Structure (SMILES): O=c1ccn([C@@H]2C[C@H](CO)[C@@H](O)C2)c(=O)[nH]1 (relative stereo) [Formula I, X = H, R = R^1 = H, (±)-1-[(1α,3β,4α)-3-hydroxy-4-(hydroxymethyl)cyclopentyl]-2,4(1H,3H)-pyrimidinedione, reference compound]
Virus Rating (VR) [2, 6]: 0
Antiviral activity against herpes simplex virus, in words [2]: not active

Structure (SMILES): O=c1[nH]c(=O)n([C@@H]2C[C@H](CO)[C@@H](O)C2)cc1I (relative stereo) [Example 3, (±)-1-[(1α,3β,4α)-3-Hydroxy-4-(hydroxymethyl)cyclopentyl]-5-iodo-2,4(1H,3H)-pyrimidinedione]
Activity against Type 2 herpes simplex virus, in words [1]: high activity
VR [1]: 3.4
EC50 ([2]; Human alphaherpesvirus 1, read-out: MIC50 (minimum inhibitory concentration, 50%), Table 1, 50% inhibition of virus-induced cytopathogenic effect, rabbit kidney cells): 0.3 µg/mL (≈ 0.852 µM)
Virus Rating (VR) [2, 6]: 7.1
Activity compared with IdUrd, in words ([2]; Table 3 tests): comparable in activity
Antiviral activity against herpes simplex virus, in words [2]: very high activity; also recorded: high activity
% of Infected Mice that lived 10 days or longer (herpes simplex virus [3]; 300 mg./kg.): 40%
% of Infected Mice that lived less than six days (herpes simplex virus [3]; 300 mg./kg.): 10%
Median Survival Time (herpes simplex virus [3]; 300 mg./kg.): 9.2 days
% of Infected Mice that lived 10 days or longer (herpes simplex virus [3]; 400 mg./kg.): 50%
% of Infected Mice that lived less than six days (herpes simplex virus [3]; 400 mg./kg.): 0%
Median Survival Time (herpes simplex virus [3]; 400 mg./kg.): 8.8 days
Activity against herpes encephalitis in mice, in words (herpes simplex virus [3]): active against herpes encephalitis
Activity against herpes encephalitis in mice, in words (herpes simplex virus [3]; listed as carbocyclic analog of 5-iodo-2'-deoxyuridine): active
Activity against murine leukemia virus, in words (murine leukemia virus): active
Replication of murine leukemia virus in mouse embryo cells (murine leukemia virus; drug concentration of 32 μg/ml): completely inhibited
Virus Yield Log10 CCID50 /ml (varicella-zoster virus; 32 μM): ≤ 0.5 Log10 CCID50 /ml
Virus-Induced Cytopathogenic Effects at 10 Days Postinfection, % (varicella-zoster virus; 32 μM, human foreskin fibroblasts): 0%
Virus Yield Log10 CCID50 /ml (varicella-zoster virus; 100 μM): ≤ 0.5 Log10 CCID50 /ml
Virus-Induced Cytopathogenic Effects at 10 Days Postinfection, % (varicella-zoster virus; 100 μM, human foreskin fibroblasts): 0%
Virus Yield Log10 CCID50 /ml (varicella-zoster virus; 320 μM): ≤ 0.5 Log10 CCID50 /ml
Virus-Induced Cytopathogenic Effects at 10 Days Postinfection, % (varicella-zoster virus; 320 μM, human foreskin fibroblasts): 0%
observable virus-induced cytopathogenic effects at 10 days postinfection, in words (varicella-zoster virus; 10 days postinfection): no observable virus-induced cytopathogenic effects
log reduction at 32 µM (varicella-zoster virus; Human alphaherpesvirus 3, Fibroblast, 32 μM, read-out: Log10 Reduction in Virus Titer): ≥ 4
log reduction at 100 µM (varicella-zoster virus; Human alphaherpesvirus 3, Fibroblast, 100 μM, read-out: Log10 Reduction in Virus Titer): ≥ 4
log reduction at 320 µM (varicella-zoster virus; Human alphaherpesvirus 3, Fibroblast, 320 μM, read-out: Log10 Reduction in Virus Titer): ≥ 4
Activity against varicella-zoster virus, in words (varicella-zoster virus; human foreskin fibroblasts): active
reduction in the titer of virus progeny (varicella-zoster virus; virus yield-reduction experiment): ≥ 4.0 log10

Structure (SMILES): Nc1cn([C@@H]2C[C@H](CO)[C@@H](O)C2)c(=O)[nH]c1=O (relative stereo) [reference compound]
VR [2]: 0.1
Antiviral activity against herpes simplex virus, in words [2]: devoid of significant activity

Structure (SMILES): Nc1ncnc2c1ncn2[C@@H]1O[C@H](CO)[C@@H](O)[C@@H]1O [9-β-D-Arabinofuranosyladenine (Ara-A), 9-β-D-arabinofuranosyladenine, reference compound]
EC50 ([2]; Human alphaherpesvirus 1, read-out: MIC50, Table 3 comparison): 9.8 µg/mL (≈ 36.7 µM)
Virus Rating (VR) (average) ([2]; Table 3 comparison, average): 2.7

Structure (SMILES): CC(=O)OC[C@H]1C[C@@H](n2cc(I)c(=O)[nH]c2=O)C[C@@H]1OC(C)=O (relative stereo) [Example 4, (±)-1-[(1α,3β,4α)-3-Hydroxy-4-(hydroxymethyl)cyclopentyl]-5-iodo-2,4(1H,3H)-pyrimidinedione Diacetate]
EC50 [2, 7]: 10 µg/mL
Virus Rating (VR) [2, 6]: 2.4

Structure (SMILES): O=c1[nH]c(=O)n([C@@H]2C[C@H](CO)[C@@H](O)C2)cc1F (relative stereo) [Formula I, X = F, R = R^1 = H, reference compound]
Virus Rating (VR) [2, 6]: 0
VR [2]: 0
Antiviral activity against herpes simplex virus, in words [2]: not active

Continued, in another order:

EC50 [2, 7]: 290 µg/mL (≈ 975 µM)
Structure (SMILES): CCCCNc1cn([C@@H]2C[C@H](CO)[C@@H](O)C2)c(=O)[nH]c1=O (relative stereo) [Example 6, (±)-5-(Butylamino)-1-[(1α,3β,4α)-3-hydroxy-4-(hydroxymethyl)cyclopentyl]-2,4(1H,3H)-pyrimidinedione]
Virus Rating (VR) [2, 6]: 2.0
Antiviral activity against herpes simplex virus, in words [2]: active

EC50 [2, 5]: 0.3 µg/mL (≈ 0.847 µM)
Structure (SMILES): O=c1[nH]c(=O)n([C@H]2C[C@H](O)[C@@H](CO)O2)cc1I [5-Iodo-2'-deoxyuridine, 5-iodo-2'-deoxyuridine]
Activity against herpes encephalitis in mice, in words (herpes simplex virus [4]): not active; also recorded: does not exhibit this type of antiviral activity

EC50 [2, 5]: 0.8 µg/mL (≈ 3.33 µM)
Structure (SMILES): Cc1cn([C@@H]2C[C@H](CO)[C@@H](O)C2)c(=O)[nH]c1=O (relative stereo) [Carbocyclic analog of thymidine]
Activity against Type 2 herpes simplex virus, in words [1]: high activity
VR [1]: 3.2
Virus Rating (VR) [2, 6]: 5.4
Virus Rating (VR) ([2]; Table 3 comparison): 5.4
Antiviral activity against herpes simplex virus, in words [2]: very high activity

EC50 [2, 7]: 15 µg/mL (≈ 58.8 µM)
EC50 [2, 5]: 10 µg/mL (≈ 39.2 µM)
Structure (SMILES): CNc1cn([C@@H]2C[C@H](CO)[C@@H](O)C2)c(=O)[nH]c1=O (relative stereo) [Example 5, (±)-1-[(1α,3β,4α)-3-Hydroxy-4-(hydroxymethyl)cyclopentyl]-5-(methylamino)-2,4(1H,3H)-pyrimidinedione]
Activity against Type 2 herpes simplex virus, in words [1]: high activity
VR [1]: 1.2
Virus Rating (VR) [2, 6]: 3.9
Virus Rating (VR) ([2]; Table 3 comparison): 4.2
Antiviral activity against herpes simplex virus, in words [2]: very high activity; also recorded: active
